Measurements: paper PMC5766511 (Scientific Reports, 2018)
Entries after “also recorded” stand apart in the source; their conditions may differ.

Legend:
[1] = target: HLA-DR15 (DRB1*15:01) heterodimer (Homo sapiens, UniProt P01903+P01911); experiment: biochemical; assay type: binding
[2] = target: HLA-DR3 (DRB1*03:01) heterodimer (Homo sapiens, UniProt P01903+P01911, A100K/A102G/A103R/A169T/F55Y/I96L/K41T/L162R/M171V/P40S/Q125H/Q178H/Q39Y/R42S/S66N/T106N/T262R/W38E/Y61H); experiment: biochemical
Sequence of HLA-DR3 (DRB1*03:01) heterodimer (P01903 26-254 limits assumed, other chains not shown): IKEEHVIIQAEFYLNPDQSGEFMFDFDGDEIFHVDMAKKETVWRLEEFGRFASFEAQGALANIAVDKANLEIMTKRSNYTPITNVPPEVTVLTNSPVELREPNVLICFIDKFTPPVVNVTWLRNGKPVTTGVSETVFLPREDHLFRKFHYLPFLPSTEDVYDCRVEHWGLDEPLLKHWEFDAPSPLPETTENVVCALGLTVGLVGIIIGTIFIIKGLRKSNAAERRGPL

[3] = test system: draining lymph node cells of HLA-DQ8 (DQB1*0302) transgenic mice; assay type: cell-based, mouse; conditions: n = 6
[4] = test system: draining lymph node cells of HLA-DR1501 (DRB1*1501) transgenic mice; assay type: cell-based, mouse; conditions: primed with 25 μg recombinant ZIKV Env; day 10 DLN cells; positive if > 2 SD above mean without antigen; n = 6; Fig. 2B
[5] = test system: draining lymph node cells of HLA-DR1 (DRB1*0101) transgenic mice; assay type: cell-based, mouse; conditions: n = 6
[6] = test system: splenocytes of ZIKV (PF13/251013-18) infected AG129 mice; assay type: cell-based, mouse; conditions: n = 5

**Q.** For `CC(C)C[C@H](NC(=O)[C@H](Cc1ccc(O)cc1)NC(=O)[C@H](C)NC(=O)[C@H](CCCNC(=N)N)NC(=O)[C@H](CC(C)C)NC(=O)[C@H](CCC(N)=O)NC(=O)[C@H](CCC(=O)O)NC(=O)[C@H](C)NC(=O)[C@@H](N)CCC(=O)O)C(=O)N[C@@H](CC(=O)O)C(=O)NCC(=O)N[C@H](C(=O)NCC(=O)N[C@H](C(=O)N[C@@H](CCC(=O)O)C(=O)O)C(C)C)[C@@H](C)O` [A3 152–166], which IC50 [1] is on record?
**A.** The IC50 was 40 nM.

**Q.** With `CC[C@H](C)[C@H](NC(=O)[C@@H](NC(=O)[C@H](CCCCN)NC(=O)[C@H](C)NC(=O)[C@H](C)N)[C@@H](C)O)C(=O)N[C@@H](C)C(=O)N[C@@H](Cc1ccc(O)cc1)C(=O)N[C@@H](CC(=O)O)C(=O)N[C@@H](CCC(=O)O)C(=O)N[C@@H](CCC(=O)O)C(=O)N[C@@H](C)C(=O)N[C@@H](CCCNC(=N)N)C(=O)N[C@@H](CCCNC(=N)N)C(=O)NCC(=O)N[C@@H](CC(C)C)C(=O)N[C@@H](CCC(=O)O)C(=O)O` [MT2-16] as the molecule, how does the IC50 [2] read?
**A.** The IC50 was 50 nM.

**Q.** Which “IFNγ ELISpot response of ZIKV Env primed T cells to peptide (in words), HLA-DQ8” value [3] does the source give for FNCLGMSNRDFLEGVSGATW [WNV P1] here?
**A.** Its value is “significant responses”.

**Q.** What about the “IFNγ ELISpot response of ZIKV Env primed T cells to peptide (in words), HLA-DR1501” value [4] of the same molecule?
**A.** Its value is “cross-reactive responses”.

**Q.** And the “IFNγ ELISpot response of ZIKV Env primed T cells to peptide (in words), HLA-DR1” value [5]?
**A.** Its value is “significant responses”.

**Q.** What about the “IFNγ ELISpot response of splenic cells to peptide” value [6] of the same molecule?
**A.** Its value is “Strong responses; also recorded: of similar magnitude to the ZIKV p1 response”.

**Q.** With “KAACPTMGEAHNDKRADPAF [WNV P8, WNV Env variant of ZIKV Env peptide 8]” as the molecule, how does the “IFNγ ELISpot response of ZIKV Env primed T cells to peptide (in words), HLA-DQ8” value [3] read?
**A.** The value was “cross-reactive epitope recognition”.
